# Test results taken from patent US20050239733A1, “Sequence requirements for inhibitory oligonucleotides” (Coley Pharmaceutical GmbH, priority 2003, published 2005).
# Experiments:
# [1] = target: T1, human TLR8 (Homo sapiens, UniProt Q9NR97); assay: Inhibition of R-848-mediated NF-κB-luciferase activation in hTLR8-LUC-293 cells; format: cell-based; conditions: for inhibitory for TLR8: general statement 'found according to the present invention', conditions not given
# T1 construct: expressed in transfected cells
# T1 sequence (Q9NR97 27-1041): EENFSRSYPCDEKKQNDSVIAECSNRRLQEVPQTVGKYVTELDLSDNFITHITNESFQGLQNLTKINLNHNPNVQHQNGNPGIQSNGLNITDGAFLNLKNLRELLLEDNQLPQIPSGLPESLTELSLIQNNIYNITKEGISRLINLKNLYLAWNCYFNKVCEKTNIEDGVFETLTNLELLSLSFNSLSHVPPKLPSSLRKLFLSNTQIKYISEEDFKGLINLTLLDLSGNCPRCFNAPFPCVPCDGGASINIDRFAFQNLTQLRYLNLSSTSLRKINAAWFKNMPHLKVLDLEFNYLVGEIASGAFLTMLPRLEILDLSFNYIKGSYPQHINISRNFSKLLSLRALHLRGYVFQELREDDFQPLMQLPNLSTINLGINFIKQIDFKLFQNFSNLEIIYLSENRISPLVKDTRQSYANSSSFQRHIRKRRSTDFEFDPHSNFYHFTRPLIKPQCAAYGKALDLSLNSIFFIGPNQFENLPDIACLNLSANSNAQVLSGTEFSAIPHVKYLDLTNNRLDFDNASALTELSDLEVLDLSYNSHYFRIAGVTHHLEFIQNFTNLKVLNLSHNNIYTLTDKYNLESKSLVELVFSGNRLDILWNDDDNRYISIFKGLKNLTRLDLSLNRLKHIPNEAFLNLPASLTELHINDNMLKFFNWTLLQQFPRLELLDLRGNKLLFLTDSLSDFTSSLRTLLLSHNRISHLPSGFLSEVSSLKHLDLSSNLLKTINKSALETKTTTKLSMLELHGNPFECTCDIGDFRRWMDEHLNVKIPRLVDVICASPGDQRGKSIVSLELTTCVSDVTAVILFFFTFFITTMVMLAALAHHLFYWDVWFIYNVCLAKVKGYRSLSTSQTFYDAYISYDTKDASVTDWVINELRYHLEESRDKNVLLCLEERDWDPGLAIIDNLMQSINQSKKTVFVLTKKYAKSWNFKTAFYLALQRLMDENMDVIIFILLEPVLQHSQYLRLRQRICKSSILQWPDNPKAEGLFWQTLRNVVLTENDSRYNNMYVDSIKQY
# Description: The previous examples describe the ability of certain inhibitory ODN to inhibit activation of signal transduction mediated by human Toll-like receptor 9 (hTLR9). […] The assay system involved stimulating hTLR8-LUC-293 cells with the TLR8 ligand, R-848 (Resiquimod; Jurk M et al. (2002) Nat Immunol 3:499) in the presence and absence of ODN and comparing the induction of luciferase activity in the absence of ODN to luciferase activity in the presence of ODN.
# Cells were assayed for luciferase activity 16 h later. Results were calculated as fold induction above medium background.
# Luciferase activity was assayed after 16 h.
# hTLR8-LUC-293 cells were incubated with 50 μM R-848 in the presence of increasing concentrations of the following ODN: ODN 2088, D13GT (whererin D is dSpacer), GTN13, N6GTN7, random 15-mer N15, N13GT, and the dinucleotide GT. Luciferase activity was assayed after 16 h. Luciferase activity of R-848 without any ODN was set to 100% (without correction for medium background, i.e. background activity of medium remained at approx. 17%).
# Luciferase activity was assayed after 16 h. Luciferase activity of R-848 without any ODN was set to 100% (without correction for medium background, i.e., background activity of medium remained at approx. 17%).
# In yet a further set of experiments hTLR8-LUC-293 cells were incubated with 50 μM R-848 in the presence of increasing amounts of different dinucleotides (GT, ODN 603; TG, ODN 688; GG, ODN 689; GU, ODN 690; UG, ODN 691; AT, ODN 692; and TT, ODN 693). Luciferase was assayed after 16 h. Luciferase activity of R-848 without any ODN was set to 100% and remaining R-848-mediated NF-κB activation in the presence of dinucleotides or ODN 2088 was calculated. Medium background was 17% in this set of experiments.
# hTLR-LUC-293 cells (expressing the respective humanTLR7, TLR8, or TLR9) were incubated with constant amounts of TLR-agonist (for hTLR7: 2 μM R-848, for hTLR8: 50 μM R-848, and for hTLR9: 0.156 μM CpG ODN 2006) and increasing amounts of TLR-antagonist. […] To compare data for different TLRs, percent remaining activity of agonist was plotted against the log of molar ratio of antagonist to agonist (e.g., for hTLR8: 50 μM R-848 and 5 μM ODN, the plotted ratio is 10^−1). Used ODN concentrations were: for hTLR7 and hTLR8, 5 μM, 0.5 μM, 0.05 μM, and 0.005 μM, and for hTLR9, 2.5 μM, 0.156 μM, 0.0098 μM and 0.00061 μM.
# [2] = target: T2, human TLR9 (Homo sapiens, UniProt Q9NR96); assay: Inhibition of CpG ODN 2006-mediated NF-κB-luciferase activation in hTLR9-LUC-293 cells; conditions: for Percent 2006 Activity: equimolar 0.156 μM CpG ODN 2006 and inhibitory ODN; for inhibitory for TLR9: general statement 'found according to the present invention', conditions not given; for inhibition of hTLR9 (CpG ODN 2006-mediated luciferase activity), in words: 0.156 μM CpG ODN 2006, increasing ODN, 16 h
# T2 sequence (Q9NR96 26-1032): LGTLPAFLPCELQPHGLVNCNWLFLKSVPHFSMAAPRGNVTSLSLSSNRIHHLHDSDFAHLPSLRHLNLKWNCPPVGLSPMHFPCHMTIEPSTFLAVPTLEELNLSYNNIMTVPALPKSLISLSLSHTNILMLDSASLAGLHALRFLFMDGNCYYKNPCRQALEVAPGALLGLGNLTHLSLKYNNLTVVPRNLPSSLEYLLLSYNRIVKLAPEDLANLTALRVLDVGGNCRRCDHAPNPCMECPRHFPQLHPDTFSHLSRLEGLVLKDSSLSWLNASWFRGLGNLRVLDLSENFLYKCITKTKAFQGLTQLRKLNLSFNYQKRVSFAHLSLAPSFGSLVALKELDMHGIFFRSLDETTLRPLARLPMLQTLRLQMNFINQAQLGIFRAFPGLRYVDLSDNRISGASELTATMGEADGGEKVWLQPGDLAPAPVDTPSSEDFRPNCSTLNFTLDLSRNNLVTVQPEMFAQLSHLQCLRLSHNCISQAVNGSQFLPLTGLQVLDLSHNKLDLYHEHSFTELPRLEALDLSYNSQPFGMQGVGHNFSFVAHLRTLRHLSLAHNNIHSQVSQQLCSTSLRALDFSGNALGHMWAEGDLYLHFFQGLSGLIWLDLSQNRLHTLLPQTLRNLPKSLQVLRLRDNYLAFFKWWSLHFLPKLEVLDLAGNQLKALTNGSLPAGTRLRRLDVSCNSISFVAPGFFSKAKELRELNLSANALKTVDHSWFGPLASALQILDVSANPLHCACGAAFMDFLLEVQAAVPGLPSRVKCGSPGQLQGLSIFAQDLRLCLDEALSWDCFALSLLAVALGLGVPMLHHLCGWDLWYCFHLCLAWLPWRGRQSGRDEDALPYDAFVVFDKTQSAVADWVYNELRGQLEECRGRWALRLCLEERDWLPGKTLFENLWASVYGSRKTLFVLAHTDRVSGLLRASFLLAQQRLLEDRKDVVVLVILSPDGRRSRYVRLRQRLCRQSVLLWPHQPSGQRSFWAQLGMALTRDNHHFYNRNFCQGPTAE
# [3] = Table 3 (nucleotides flanking 5′ CC, truncations)
# [4] = Table 2 (5′ CC replaced by other dinucleotides)
# [5] = Table 1 (length b / Spacer 18 variants)
sequence,measurement,setting,value
"ACCTGGCGGGGAAGT (DNA, backbone and methylation of C not given here) [ODN 941]",inhibitory for TLR8,[1],inhibitory
same,Percent 2006 Activity,[2]; [3],11%
same,inhibitory for TLR9,[2],inhibitory
"CCCTGGCGGGGAAGT (DNA, backbone and methylation of C not given here) [ODN 942]",inhibitory for TLR8,[1],inhibitory
same,Percent 2006 Activity,[2]; [3],8%
same,inhibitory for TLR9,[2],inhibitory
CCTCAAGCTTGAGGGG [SEQ ID NO:13],inhibitory for TLR8,[1],not for TLR8
same,inhibitory for TLR9,[2],inhibitory
"CTGGCGGGGAAGT (DNA, backbone and methylation of C not given here) [ODN 962]","inhibition of hTLR8 (R-848 activity), in words","[1]; 50 μM R-848, increasing ODN (up to 5 μM), 16 h",specific inhibition
same,Percent 2006 Activity,[2]; [3],122%
"GCCTGGCGGGGAAGT (DNA, backbone and methylation of C not given here) [ODN 940]",inhibitory for TLR8,[1],inhibitory
same,Percent 2006 Activity,[2]; [3],13%
same,inhibitory for TLR9,[2],inhibitory
"NNNNNNNNNNNNNN [ODN 605, reference compound]","inhibition of hTLR9 (CpG ODN 2006-mediated luciferase activity), in words",[2],not
"TAATGGCGGGGAAGT (DNA, backbone and methylation of C not given here) [ODN 959]",Percent 2006 Activity,[2]; [4],92%
"TACTGGCGGGGAAGT (DNA, backbone and methylation of C not given here) [ODN 074]",Percent 2006 Activity,[2]; [4],132%
"TAGTGGCGGGGAAGT (DNA, backbone and methylation of C not given here) [ODN 441]",Percent 2006 Activity,[2]; [4],105%
"TATTGGCGGGGAAGT (DNA, backbone and methylation of C not given here) [ODN 442]",Percent 2006 Activity,[2]; [4],101%
"TCATGGCGGGGAAGT (DNA, backbone and methylation of C not given here) [ODN 073]",Percent 2006 Activity,[2]; [4],114%
"TCCAGGCGGGGAAGT (DNA, backbone and methylation of C not given here) [ODN 157]",Percent 2006 Activity,[2]; [3],14%
"TCCCGGCGGGGAAGT (DNA, backbone and methylation of C not given here) [ODN 155]",inhibitory for TLR8,[1],inhibitory
same,Percent 2006 Activity,[2]; [3],11%
same,inhibitory for TLR9,[2],inhibitory
"TCCGGGCGGGGAAGT (DNA, backbone and methylation of C not given here) [ODN 156]",inhibitory for TLR8,[1],inhibitory
same,Percent 2006 Activity,[2]; [3],10%
same,inhibitory for TLR9,[2],inhibitory
"TCCTAGCGGGGAAGT (DNA, backbone and methylation of C not given here) [SEQ ID NO:10]",inhibitory for TLR8,[1],inhibitory
same,inhibitory for TLR9,[2],inhibitory
TCCTAGCGGGGGCGTCCTAT (chemistry not given here) [SEQ ID NO:12],inhibitory for TLR8,[1],not for TLR8
same,inhibitory for TLR9,[2],inhibitory
"TCCTGGCGGGGAA (DNA, backbone and methylation of C not given here) [ODN 969]","inhibition of hTLR9 (CpG ODN 2006-mediated luciferase activity), in words",[2],inhibited
"TCCTGLGGGGAAGT (Spacer 18 hexaethyleneglycol spacer, as printed in the source, key not given here) [ODN 493]",Percent 2006 Activity,[2]; [5],54%
"TCCTGLLGGGGAAGT (two Spacer 18 hexaethyleneglycol spacers, as printed in the source, key not given here) [ODN 492]",Percent 2006 Activity,[2]; [5],67%
"TCCTGTGTGTGTGTCGGGGAAGT (listed as DNA, chemistry not given here) [ODN 494]",Percent 2006 Activity,[2]; [5],47%
"TCCTGTGTGTGTGTGTCGGGGAAGT (listed as DNA, chemistry not given here) [ODN 495]",Percent 2006 Activity,[2]; [5],34%
"TCGTGGCGGGGAAGT (DNA, backbone and methylation of C not given here) [ODN 435]",Percent 2006 Activity,[2]; [4],77%
"TCTTGGCGGGGAAGT (DNA, backbone and methylation of C not given here) [ODN 437]",Percent 2006 Activity,[2]; [4],89%
"TGGTGGCGGGGAAGT (DNA, backbone and methylation of C not given here) [ODN 436]",Percent 2006 Activity,[2]; [4],90%
"TTATGGCGGGGAAGT (DNA, backbone and methylation of C not given here) [ODN 439]",Percent 2006 Activity,[2]; [4],91%
"TTCTGGCGGGGAAGT (DNA, backbone and methylation of C not given here) [ODN 440]",Percent 2006 Activity,[2]; [4],90%
"TTGTGGCGGGGAAGT (DNA, backbone and methylation of C not given here) [ODN 438]",Percent 2006 Activity,[2]; [4],95%
"TTTTGGCGGGGAAGT (DNA, backbone and methylation of C not given here) [ODN 072]",Percent 2006 Activity,[2]; [4],121%
